# Assay results as given in ChEMBL document CHEMBL4184193, “Design, synthesis, and opioid activity of arodyn analogs cyclized by ring-closing metathesis involving Tyr(allyl)” (Bioorg Med Chem, 2018).
# Where a SMILES comes first, the peptide text is derived from it. [ ]: non-standard residue; d: D form.
# How the values were obtained:
# [1] = target: Kappa-type opioid receptor (Rattus norvegicus) (UniProt P34975); test: Antagonist activity at rat kappa opioid receptor expressed in CHO cell membranes assessed as inhibition of Dyn A-(1-13)NH2-induced [35S]GTPgammaS binding at 10 uM relative to control; type: functional
# [2] = target: Kappa-type opioid receptor (Rattus norvegicus) (UniProt P34975); test: Antagonist activity at rat kappa opioid receptor expressed in CHO cell membranes assessed as inhibition of Dyn A-(1-13)NH2-induced [35S]GTPgammaS binding by schild analysis; type: functional
# [3] = target: Delta-type opioid receptor (Rattus norvegicus, UniProt P33533); test: Displacement of [3H]DPDPE from rat delta opioid receptor expressed in CHO cells after 90 mins by scintillation counting analysis; type: cell-based
# Chain of Delta-type opioid receptor (P33533 whole entry): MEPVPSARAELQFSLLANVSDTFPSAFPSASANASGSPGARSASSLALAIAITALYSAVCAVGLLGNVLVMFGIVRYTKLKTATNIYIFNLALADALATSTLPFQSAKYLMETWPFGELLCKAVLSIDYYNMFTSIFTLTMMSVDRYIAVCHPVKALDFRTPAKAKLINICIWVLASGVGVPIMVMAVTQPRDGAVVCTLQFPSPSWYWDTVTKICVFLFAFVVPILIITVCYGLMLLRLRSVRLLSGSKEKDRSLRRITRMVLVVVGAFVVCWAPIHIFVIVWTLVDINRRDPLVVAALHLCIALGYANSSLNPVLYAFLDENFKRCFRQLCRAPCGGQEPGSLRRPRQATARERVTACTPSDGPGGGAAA
# Chain of Kappa-type opioid receptor (Rattus norvegicus) (P34975 whole entry): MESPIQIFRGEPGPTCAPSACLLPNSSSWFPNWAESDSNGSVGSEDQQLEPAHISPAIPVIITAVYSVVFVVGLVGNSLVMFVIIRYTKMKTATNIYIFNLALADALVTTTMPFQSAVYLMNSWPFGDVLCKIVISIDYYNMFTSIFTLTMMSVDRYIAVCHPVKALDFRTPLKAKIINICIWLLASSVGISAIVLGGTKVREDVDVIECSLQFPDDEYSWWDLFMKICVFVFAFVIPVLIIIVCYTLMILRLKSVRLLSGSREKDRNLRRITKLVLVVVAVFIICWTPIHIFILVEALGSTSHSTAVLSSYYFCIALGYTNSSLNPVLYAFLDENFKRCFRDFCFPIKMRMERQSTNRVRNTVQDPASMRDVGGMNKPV
smiles,measurement,setting,value
CC[C@H](C)[C@H](NC(=O)[C@H](CCCNC(=N)N)NC(=O)[C@@H]1C/C=C/COc2ccc(cc2)C[C@H](NC(=O)[C@H](Cc2ccccc2)NC(=O)[C@H](Cc2ccccc2)NC(C)=O)C(=O)N[C@@H](CCCNC(=N)N)C(=O)N1)C(=O)N[C@@H](CCCNC(=N)N)C(=O)N1CCC[C@H]1C(=O)N[C@@H](CCCCN)C(N)=O,inhibition,[1],3.3%
CC(=O)N[C@@H](Cc1ccccc1)C(=O)N[C@@H](Cc1ccccc1)C(=O)N[C@@H](Cc1ccccc1)C(=O)N[C@@H](CCCN=C(N)N)C(=O)N[C@@H](CC(C)C)C(=O)N[C@@H](CCCN=C(N)N)C(=O)N[C@@H](CCCN=C(N)N)C(=O)N[C@@H](C)C(=O)N[C@@H](CCCN=C(N)N)C(=O)N1CCC[C@H]1C(=O)N[C@@H](CCCCN)C(N)=O (Ac-FFFRLRRARPK-NH2),Kb,[2],17 nM
CC(=O)N[C@@H](Cc1ccccc1)C(=O)N[C@@H](Cc1ccccc1)C(=O)N[C@@H](Cc1ccccc1)C(=O)N[C@@H](CCCNC(=N)N)C(=O)N[C@@H](CC(C)C)C(=O)N[C@@H](CCCNC(=N)N)C(=O)N[C@@H](CCCNC(=N)N)C(=O)N[C@H](C)C(=O)N[C@@H](CCCNC(=N)N)C(=O)N1CCC[C@H]1C(=O)N[C@@H](CCCCN)C(N)=O (Ac-FFFRLRR[dA]RPK-NH2),Ki,[3],> 5000 nM
